Measurements as given in patent US20250228832A1, “METHODS FOR TREATING DISORDERS AMELIORATED BY MUSCARINIC RECEPTOR ACTIVATION” (KARUNA THERAPEUTICS, INC., priority 2022, published 2025).
Where two headings read alike, the source gives them in different places.

Target: T1, human M2 receptor (Homo sapiens, UniProt P08172)
T1 sequence (P08172 1-466): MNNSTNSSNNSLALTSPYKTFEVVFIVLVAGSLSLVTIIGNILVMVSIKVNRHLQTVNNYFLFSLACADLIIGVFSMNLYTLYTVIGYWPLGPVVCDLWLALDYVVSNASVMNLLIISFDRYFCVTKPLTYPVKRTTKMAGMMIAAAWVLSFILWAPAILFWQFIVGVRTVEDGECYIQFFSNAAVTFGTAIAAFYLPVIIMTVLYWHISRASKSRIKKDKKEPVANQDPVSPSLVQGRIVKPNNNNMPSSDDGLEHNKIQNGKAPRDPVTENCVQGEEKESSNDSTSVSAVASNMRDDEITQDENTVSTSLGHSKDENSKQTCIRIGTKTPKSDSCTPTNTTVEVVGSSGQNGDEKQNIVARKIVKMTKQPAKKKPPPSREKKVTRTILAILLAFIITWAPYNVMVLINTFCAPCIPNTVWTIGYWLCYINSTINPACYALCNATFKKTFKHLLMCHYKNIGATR
Assay: SPA GTP (GTPgS) binding curve shift assay, M2
Format: biochemical
Description: Membranes were prepared for GTPgS binding assays from CHO-K1 cells stably expressing human M2 or human M4 receptors. Cells were grown in 5-layer cell culture flasks. Cells were washed with 50 mL of PBS and then dissociated with 0.05% trypsin. Dissociated cells were then collected by centrifugation at 650×g for 8 min at 4° C. Pellets were rewashed in PBS by centrifugation and resuspended in 30 mL of 20 mM HEPES, 10 mM EDTA, pH 7.4. After sitting on ice for 30 min, membranes were collected by centrifugation at 50000×g for 15 min at 4° C., resuspended in 30 mL of 20 mM HEPES, 0.1 mM EDTA, pH 7.4, and collected again by centrifugation. Pellets were then washed twice by centrifugation in 30 mL of 20 mM HEPES, pH 7.4, and stored at −80° C. until the day of the assay. On the day of the assay, pellets were thawed on ice and resuspended in 1 mL of 20 mM HEPES, pH 7.4, 10 mM MgCl2, and 100 mM NaCl using Dounce homogenization.
According to Promega guidelines, membrane protein concentration was determined by BCA protein assay (Promega, Madison, WI).
On the day of the assay, serial dilutions of test PAM compounds were brought up in assay buffer (20 mM HEPES, 10 mM MgCl2; see Table 4 for NaCl concentrations) at four times the final assay concentration. […] of membrane homogenates (containing […] of membrane protein) were prepared in assay buffer supplemented with GDP at 4× final assay concentration (see Table 4 for GDP concentrations) and dispensed into 96 well polypropylene, U-bottom Greiner plates. Membrane plates were incubated for 10 min at room temperature with gentle shaking. Then, 25 μL of test compounds were added to assay plates. Plates were then incubated, with shaking, for an additional 10-15 min. Then, 25 μL of diluted agonists serially diluted in assay buffer at 4× final assay concentration was added to assay plates. Plates were then incubated, with shaking, for an additional 10-15 min. Next, […] of 0.4 nM ^35S-GTP (Perkin Elmer, Waltham, MA) in assay buffer was added to assay mixtures. The binding reaction was left on the shaker for 1 h at room temperature. Membranes in assay reactions were then transferred to GF/C filter plates (UniFilter, Perkin Elmer) and washed three times using FilterMate Harvester (Perkin Elmer) with cold assay buffer containing no GDP. Filter plates were then dried at 40° C. overnight, and […] of Beta Plate Scintillation liquid was added. Plates were top and bottom sealed before being read on the TopCount scintillation counter (Perkin Elmer, Waltham, MA).
Raw data for all assays was transmitted directly from plate readers into the Beacon database for processing. All assay plates contained positive and negative control wells for data normalization and scaling. […] All control wells contained DMSO at a final assay concentration that matched the test compound wells.
For GTPgS assays, the negative control wells were defined as 0% response. The highest response in a plate was scaled to 1, representing 100% response. Data from test compound wells was scaled to these controls and are reported as % control values. This was done to allow for subsequent GraphPad cooperativity analysis, setting the maximal response at no more than 1.

[1] = M2, Emraclidine concentration 0 nM
[2] = M2, Emraclidine concentration 41.2 nM, read-out: Emax
[3] = M2, Emraclidine concentration 123 nM, read-out: Emax
[4] = M2, Emraclidine concentration 370 nM
[5] = M2, Emraclidine concentration 1110 nM, read-out: Emax
[6] = M2, Emraclidine concentration 3330 nM, read-out: Emax
[7] = M2, Emraclidine concentration […]
[8] = M2, MK-4710 concentration 41.2 nM, read-out: Emax
[9] = M2, MK-4710 concentration 370 nM
[10] = M2, MK-4710 concentration 1110 nM, read-out: Emax
[11] = M2, MK-4710 concentration 3330 nM, read-out: Emax
[12] = M2, MK-4710 concentration 123 nM, read-out: Emax

Q: Which results are given for `CCCCCCOc1nsnc1C1=CCCN(C)C1` [xanomeline, reference compound]?
A: Emax: 74.7%; Emax [1]: 36.2%; Emax [2]: 48.2%; Emax [3]: 49.8%; Emax at […] [4]: 41.5%; Emax [5]: 59.6%; Emax [6]: 64.1%; Emax at […] [7]: 41.7%; τ (agonist pharmacology) (M2, M4 PAM Emraclidine): 0.0; τ (agonist pharmacology) (M2, M4 PAM MK-4710): 0.0; Emax (M2, MK-4710 concentration 0 nM): 55.6%; Emax [8]: 65.3%; Emax at […] [9]: 55.5%; Emax [10]: 74.1%; Emax [11]: 75.7%; Emax at […] (M2, MK-4710 concentration […]): 60.1%

Q: What does the source list for `CCCCCCCOc1nsnc1C1=CCCCN1C` [KTX-593, 3-(heptyloxy)-4-(1-methyl-1,4,5,6-tetrahydropyridin-2-yl)-1,2,5-thiadiazole]?
A: EC50 [1]: 35.7 nM; Emax [1]: 39.8%; Emax [2]: 52.6%; Emax [3]: 52.2%; Emax at […] [4]: 50.1%; Emax [5]: 67.5%; Emax [6]: 75.1%; Emax at […] [7]: 48.7%; α (cooperativity, affinity shift) (M2, M4 PAM Emraclidine): 1.0; β (cooperativity, efficacy shift) (M2, M4 PAM Emraclidine): 1370.0; τ (agonist pharmacology) (M2, M4 PAM Emraclidine): 1.6; α (cooperativity, affinity shift) (M2, M4 PAM MK-4710): 1.0; β (cooperativity, efficacy shift) (M2, M4 PAM MK-4710): 10.3; τ (agonist pharmacology) (M2, M4 PAM MK-4710): 0.0; EC50 (M2, MK-4710 concentration 0 nM): 19.6 nM; Emax (M2, MK-4710 concentration 0 nM): 38.7%; Emax [8]: 50.1%; Emax [12]: 50.2%; Emax at […] [9]: 61.4%; Emax [10]: 62.2%; Emax [11]: 77.6%; Emax at […] (M2, MK-4710 concentration […]): 57%

Q: With `CCCCCOc1nsnc1C1=CCCCN1C` [KTX-517, 3-(1-methyl-1,4,5,6-tetrahydropyridin-2-yl)-4-(pentyloxy)-1,2,5-thiadiazole] as the compound, how does the EC50 [1] read?
A: 18.5 nM

Q: What about the Emax [1] of the same compound?
A: 35.6%

Q: And the Emax [2]?
A: 57.9%

Q: And the Emax [3]?
A: 51.1%

Q: And the Emax at […] [4]?
A: 52.6%

Q: What about the Emax [5] of the same compound?
A: 65.9%

Q: What about the Emax [6] of the same compound?
A: 79.2%

Q: And the Emax at […] [7]?
A: 44.8%

Q: And the “α (cooperativity, affinity shift)” value (M2, M4 PAM Emraclidine)?
A: 1.0

Q: And the “β (cooperativity, efficacy shift)” value (M2, M4 PAM Emraclidine)?
A: 18.1

Q: And the “τ (agonist pharmacology)” value (M2, M4 PAM Emraclidine)?
A: 0.1

Q: What about the “α (cooperativity, affinity shift)” value (M2, M4 PAM MK-4710) of the same compound?
A: 1.0

Q: What about the “β (cooperativity, efficacy shift)” value (M2, M4 PAM MK-4710) of the same compound?
A: 5.0

Q: What about the “τ (agonist pharmacology)” value (M2, M4 PAM MK-4710) of the same compound?
A: 0.1

Q: And the EC50 (M2, MK-4710 concentration 0 nM)?
A: 14.3 nM

Q: And the Emax (M2, MK-4710 concentration 0 nM)?
A: 45.1%

Q: And the EC50 (M2, MK-4710 concentration 41.2 nM)?
A: 11.9 nM

Q: What about the Emax [8] of the same compound?
A: 53.2%

Q: What about the EC50 (M2, MK-4710 concentration 123 nM) of the same compound?
A: 14.8 nM

Q: What about the Emax [12] of the same compound?
A: 55.6%

Q: What about the EC50 [9] of the same compound?
A: 13.1 nM

Q: And the Emax at […] [9]?
A: 59.1%

Q: What about the EC50 (M2, MK-4710 concentration 1110 nM) of the same compound?
A: 15.8 nM

Q: What about the Emax [10] of the same compound?
A: 70.6%

Q: What about the EC50 (M2, MK-4710 concentration 3330 nM) of the same compound?
A: 10.3 nM

Q: And the Emax [11]?
A: 78.7%

Q: What about the EC50 (M2, MK-4710 concentration […]) of the same compound?
A: 25.7 nM

Q: And the Emax at […] (M2, MK-4710 concentration […])?
A: 60.6%

Q: Which results are given for `CC1OC2(CS1)CN1CCC2CC1` (stereo not shown) [cevimeline, Cevimeline, reference compound]?
A: EC50 [1]: 2100 nM; Emax [1]: 34.0%; Emax [2]: 57%; Emax [3]: 51.8%; Emax at […] [4]: 48.6%; Emax [5]: 51.4%; Emax [6]: 69.6%; Emax at […] [7]: 43.8%; α (cooperativity, affinity shift) (M2, M4 PAM Emraclidine): 1.0; β (cooperativity, efficacy shift) (M2, M4 PAM Emraclidine): 21.1; τ (agonist pharmacology) (M2, M4 PAM Emraclidine): 0.0; α (cooperativity, affinity shift) (M2, M4 PAM MK-4710): 1.0; β (cooperativity, efficacy shift) (M2, M4 PAM MK-4710): 53.4; τ (agonist pharmacology) (M2, M4 PAM MK-4710): 0.0; EC50 (M2, MK-4710 concentration 0 nM): 2260 nM; Emax (M2, MK-4710 concentration 0 nM): 39.6%; Emax [8]: 38.2%; Emax [12]: 39%; Emax at […] [9]: 39.3%; Emax [10]: 49.5%; Emax [11]: 68.2%; Emax at […] (M2, MK-4710 concentration […]): 42.1%
